Patent publication US8338607B2, “Cyclic amine compounds and agents for pest control” (Nippon Soda Co., Ltd., priority 2005, dated 2012)

Experiments:
Panonychus citri = test: Effectiveness against Panonychus citri (mandarin orange leaf, emulsion applied with rotary spreading tower); assay type: in vivo; settings: adult female Panonychus citri; 125 ppm; adults removed 3 days after the application; whether eggs could grow to adults examined on the 11th day
Description: 10 adult female Panonychus citri were inoculated on the leaf of a mandarin orange, which was placed in a petri dish. After the inoculation, the drug solution, which was prepared by following the method of the emulsion shown in Example 2 of the drugs and by diluting with water to achieve the compound concentration of 125 ppm, was applied using a rotary spreading tower. The dish was placed in a temperature-controlled room where the temperature and humidity were set to 25° C. and 65% respectively, adults were removed 3 days after the application, and whether eggs laid during these 3 days could grow to become adults was examined on the 11th day.

Tetranychus urticae = test: Effectiveness against Tetranychus urticae (common bean leaf, wettable powder drug solution); assay type: in vivo; settings: adult female Tetranychus urticae resistant to organophosphorus pesticides; 125 ppm; examined 3 days after the application; 25° C., 65% humidity

Row | SMILES | insecticidal rate (Panonychus citri) [%] | insecticidal rate (adulticidal rate) (Tetranychus urticae) [%]
1 | CCCOc1cc(C(F)(F)F)ccc1OC1CC2CCC(C1)N2c1ccc(C(F)(F)F)c(F)c1 (stereo not drawn) [Compound 4-70] | 100 | 100
2 | FC(F)(F)c1ccc(OC2CC3CCC(C2)N3c2ccc(C(F)(F)F)cn2)nc1 (stereo not drawn) [Compound 2-3, 3α-(5-trifluoromethyl-2-pyridyloxy)-8-(5-trifluoromethyl-pyridine-2-yl)-8-azabicyclo[3.2.1]octane] |  | 100
